In patent US12595239B2, “Substituted isoxazoline derivatives” (BASF SE, priority 2021, dated 2026):

Assays:
Format in all cases: in vivo
Aedes aegypti = assay: whole plant or invertebrate; conditions: 48 h, larval mortality, 2 days, read-out: mortality in comparison with untreated controls
Protocol: For evaluating control of Yellow Fever Mosquito, the test unit consisted of 96-well-microtiter plates containing 200 μl of tap water per well and 5-15 freshly hatched A. aegypti larvae. The active compounds were formulated using a solution containing 75% (v/v) water and 25% (v/v) DMSO. Different concentrations of formulated compounds or mixtures were sprayed onto the insect diet at 2.5 μl, using a custom-built micro atomizer, at two replications.
After application, microtiter plates were incubated at 28±1° C., 80±5% RH for 2 days. Larval mortality was then visually assessed.

Tetranychus kanzawai = assay: B.10 Red Spider Mite, cowpea bean spray test; conditions: 72 hours after treatment, read-out: mortality in comparison with untreated controls
Protocol: The active compound was dissolved at the desired concentration in a mixture of 1:1 (vol:vol) distilled water:acetone. Add surfactant (Kinetic) was added at a rate of 0.01% (vol/vol). The test solution was prepared at the day of use. Potted cowpea beans of 4-5 days of age were cleaned with tap water and sprayed with I-2 ml of the test solution using air driven DeVilbiss® hand atomizer at 20-30 psi (≈1,38 to 2,07 bar). The treated plants were allowed to air dry and afterwards inoculated with 30 or more mites by clipping a cassava leaf section from rearing population. Treated plants were placed inside a holding room at about 25-26° C. and about 65-70% relative humidity. Percent mortality was assessed 72 hours after treatment.

Plutella xylostella = assay: B.6 Diamond Back Moth, cabbage leaf disc dip test; conditions: foliar, 3rd instar larvae, 72 hours after treatment, read-out: mortality in comparison with untreated controls
Procedure, shortened: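 Cabbage leaf discs were dipped in compound in 1:1 water:acetone with 0.01% surfactant, air-dried, then infested with ten 3rd instar larvae. Mortality read at 72 h after treatment, with feeding damage scored on a 0–100% scale.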

Spodoptera eridania = assay: B.11 Southern Armyworm 2nd instar larvae, lima bean foliar spray test; conditions: 96 h, 4 days after treatment, read-out: mortality in comparison with untreated controls
Procedure, shortened: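 Scoring of mortality and feeding reduction was done 4 days after treatment, relative to untreated controls. Sieva lima beans at the 1st true leaf stage received an electrostatic foliar spray (50:50 acetone:water, 0.01% surfactant), then were bagged with 10–11 larvae at about 25 °C and 20–40% RH.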

Heliothis virescens = assay: B.4 Tobacco Budworm, microtiter plate diet test; conditions: 120 h, egg and larval mortality, 5 days, read-out: mortality in comparison with untreated controls
Protocol: For evaluating control of Tobacco Budworm, the test unit consisted of 96-well-microtiter plates containing an insect diet and 15-25 H. virescens eggs. The compounds were formulated using a solution containing 75% v/v water and 25% v/v DMSO. Different concentrations of formulated compounds were sprayed onto the insect diet at 10 μl, using a custom-built micro atomizer, at two replications. After application, microtiter plates were incubated at about 28±1° C. and about 80±5% relative humidity for 5 days. Egg and larval mortality was then visually assessed.

Anthonomus grandis = assay: B.1 Boll weevil (Anthonomus grandis), 96-well microtiter plate diet test; conditions: 120 h, egg and larval mortality, 5 days, read-out: mortality in comparison with untreated controls
Protocol: For evaluating control of boll weevil, the test unit consisted of 96-well-microtiter plates containing an insect diet and 5-10 A. grandis eggs.
The compounds were formulated using a solution containing 75% v/v water and 25% v/v DMSO. Different concentrations of formulated compounds were sprayed onto the insect diet at 5 μl, using a custom-built micro atomizer, at two replications.
After application, microtiter plates were incubated at about 25±1° C. and about 75±5% relative humidity for 5 days. Egg and larval mortality were then visually assessed.

Myzus persicae = assay: B.3 Green Peach Aphid (mixed life stages), systemic artificial diet test; conditions: 72 h, treated aphid diet, 3 days, read-out: mortality in comparison with untreated controls
Source text: For evaluating control of Green Peach Aphid through systemic means the test unit consisted of 96-well-microtiter plates containing liquid artificial diet under an artificial membrane. The compounds were formulated using a solution containing 75% v/v water and 25% v/v DMSO. Different concentrations of formulated compounds were pipetted into the aphid diet, using a custom-built pipette, at two replications. After application, 5-8 adult aphids were placed on the artificial membrane inside the microtiter plate wells. The aphids were then allowed to suck on the treated aphid diet and incubated at about 23±1° C. and about 50±5% relative humidity for 3 days. Aphid mortality and fecundity was then visually assessed.

Nezara viridula = assay: B.8 Green Soldier Stink Bug, soybean pod spray test; conditions: 120 h, late 3rd instar, after 5 days, read-out: mortality in comparison with untreated controls
Protocol: The active compound was dissolved at the desired concentration in a mixture of 1:1 (vol:vol) distilled water:aceteone. Surfactant (Kinetic) was added at a rate of 0.01% (vol/vol). The test solution was prepared at the day of use. Soybean pods were placed in 90×50 mm glass Petri dishes lined with moistened filter paper and inoculated with ten late 3rd instar N. viridula. Using a hand atomizer, an approximately 2 ml solution was sprayed into each Petri dish. Treated setup was kept at about 25-26° C. and relative humidity of about 65-70%. Percent mortality was recorded after 5 days.

Dichromothrips corbetti = assay: B.7 Orchid Thrips, floral-immersion test; conditions: adult thrips, 72 hours after treatment, read-out: mortality in comparison with untreated controls
Procedure, shortened: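 Orchid petals were dipped in compound diluted in 1:1 acetone:water with 0.01% v/v Kinetic, dried, then sealed with about 20 lab-colony adult thrips. Arenas were held in the dark at about 28 °C, and percent mortality was scored 72 h after treatment.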

O=C(Nc1ncc(F)cc1F)c1cc(OC2=NOC(c3cc(Cl)c(F)c(Cl)c3)(C(F)(F)F)C2)ccc1Cl (stereo not drawn) [II-8, 2-chloro-5-[[5-(3,5-dichloro-4-fluoro-phenyl)-5-(trifluoromethyl)-4H-isoxazol-3-yl]oxy]-N-(3,5-difluoro-2-pyridyl)benzamide]
≥ 75%: mortality at 2500 ppm (Aedes aegypti) | mortality at 300 ppm (Tetranychus kanzawai) | mortality at 300 ppm (Plutella xylostella) | mortality at 300 ppm (Spodoptera eridania) | mortality at 2500 ppm (Heliothis virescens) | mortality at 2500 ppm (Anthonomus grandis) | mortality at 2500 ppm (Myzus persicae) | mortality at 300 ppm (Nezara viridula) | mortality at 300 ppm (Dichromothrips corbetti)
